The results in this text go back to US20250304612A1, “THERAPEUTIC AGENT FOR BLOOD CANCER” (Aptabio Therapeutics Inc., priority 2017, published 2025).

As a reminder, the IC50 is the midpoint of a concentration-inhibition curve.

Common to all, as to test: MTT cytotoxicity assay, drug-resistant blood cancer cells
Holding throughout (type): cell-based

For assay [1], the system named is Cytarabine-resistant HL-60. As to conditions: Homo sapiens, 120 h; Cytarabine-resistant HL-60, MTT, 5 days; read-out: IC50, cytotoxic effects on drug-resistant blood cancer cells.
Assay [2] deals with Cytarabine-resistant MV-4-11. As to conditions: Homo sapiens, MV4-11, 120 h; Cytarabine-resistant MV-4-11, MTT, 5 days; read-out: IC50, cytotoxic effects on drug-resistant blood cancer cells.
Assay [3] has as its system Cytarabine-resistant MOLM13. Conditions: Homo sapiens, MOLM-13, 120 h, 5 days, read-out: IC50, cytotoxic effects on drug-resistant blood cancer cells. Here is the method: (§1) Each oligonucleotide-modified nucleic acid was diluted in a 10 mM Tris-HCl (pH 7.4) solution to a final concentration of 100 μM. The diluted solution was allowed to stand at 94° C. for 5 minutes and then the tube was allowed to stand on ice. The resulting solution was added with a 2M KCl solution such that a final concentration of the KCl solution became 50 mM, allowed to stand at 60° C. for 3 hours and was slowly cooled to room temperature. Each oligonucleotide was diluted in a 10 mM Tris-HCl (pH 7.4) solution to a concentration of 10 μM, and was allowed to stand at 94° C. for 5 minutes, and the tube was allowed to stand on ice. The resulting solution was added with a 2M KCl solution such that the final concentration of the KCl solution became 50 mM, and allowed to stand at 60° C. for 3 hours and then slowly cooled to room temperature, which was then used for the present Example.
(§2) On the day before the experiment, 190 μl of a culture medium (at a concentration of 10^4 to 10^5 cells/ml) containing blood cancer cells such as HL60, MV-4-11, CCRF-CEM, MOLT-4 and MOLM-13 cell lines, and drug-resistant blood cancer cells such as azacitidine (AZA-1)-resistant MOLM13, decitabine (Dec-5)-resistant MOLM13 and cytarabine (AraC-1)-resistant MOLM13 cell lines, and normal cells such as WI38, CCD-18co and Fa2N4 cells were seeded on a 96-well plate. The next day, 10 μl of the oligonucleotide-modified nucleic acid solution prepared in Example 2 was added and then cultured for 5 days.
(§3) Five days after drug treatment, MTT assay was performed to measure cytotoxicity of the cell lines [see JBC 1999, 26369].

Assay [4] deals with Decitabine-resistant MOLM13. As to conditions: Homo sapiens, MOLM-13, 120 h, 5 days, read-out: IC50, cytotoxic effects on drug-resistant blood cancer cells. Here is the method: as §1, §2, §3
The test system of assay [5] is Azacitidine-resistant MOLM13. As to conditions: Homo sapiens, MOLM-13, 120 h, 5 days, read-out: IC50, cytotoxic effects on drug-resistant blood cancer cells. Here is the method:
as §1, §2, §3

`Nc1ccn([C@@H]2O[C@H](CO)[C@@H](O)[C@@H]2O)c(=O)n1` [Cytarabine, cytarabine]: the IC50 in assay [1] is greater than 30 µM; in assay [2], greater than 20 µM; in assay [3], greater than 10 µM; in assay [4], 3.49 µM; in assay [5], 3.5 µM.
